Assay results taken from US7947854B2, “Bis-cationic compounds and use thereof” (The University of Sydney, priority 2003, dated 2011).

Tested on: C. neoformans strain H99 phospholipases
Assay: Inhibition of C. neoformans strain H99 phospholipases (all enzymes and activities)
Assay type: biochemical, Cryptococcus neoformans H99
Method: Radiometric assay method for phospholipases. Enzyme activities were measured as described previously in a final volume of 125 μL at 37° C. For the determination of secreted PLB activity, carrier dipalmitoyl phosphatidylcholine (DPPC, final concentration 800 μM) and 1,2-di[1-^14C] palmitoyl phosphatidylcholine (20,000 dpm) were dried under nitrogen and suspended in 125 mM imidazole acetate buffer (assay buffer, pH 4.0) by sonication using a Branson 450 sonifier. The reaction time was 22 min, using 1 μg total protein and PLB activity was determined by the rate of decrease of the radiolabelled PC substrate, with appearance of the label in free fatty acid. […] These activities were measured by the appearance of radiolabel from PC in Lyso PC, diacylglycerol and phosphatidic acid, respectively.
Secreted LPL and LPTA activities were measured simultaneously in a reaction mixture containing 1-[^14C]palmitoyl lyso-PC (25,000 dpm) and carrier lyso-PC (final concentration 200 μM) in assay buffer. The reaction time was […] with 1 μg of total protein and LPL activity was measured by the rate of loss of 1-[^14C]palmitoyl lyso-PC with release of radiolabelled fatty acids. […]
All reactions were terminated by adding 0.5 mL of chloroform:methanol (2:1 v/v). […] 37:911-917, separated by TLC and quantified as previously described. […]

For `CCCC[N+](CCCC)(CCCC)CCCCCCCCCCCC[N+](CCCC)(CCCC)CCCC` [Compound 3, 1,12-bis(tributylammonium)do-decane dibromide], the “enzyme (phospholipase) inhibition, in words” value was “inhibits”.
